Reference: patent US20170119776A1, “CHIRAL 2,5-DISUBSTITUTED CYCLOPENTANECARBOXYLIC ACID DERIVATIVES AND USE THEREOF” (BAYER PHARMA AKTIENGESELLSCHAFT, priority 2014, published 2017)

What was measured:
Assay type in all cases: biochemical
MMP-8 of the mouse = biological target: T1, MMP-8 of the mouse (Mus musculus, UniProt O70138); assay: In vitro MMP-8 inhibition test of the mouse
T1 construct: purchased R&D Systems 2904-MP
Text: (§1) The activity strength of the compounds according to the invention towards other MMPs (and therefore their selectivity) is likewise ascertained in in vitro inhibition tests. The MMP-mediated amidolytic cleavage of a suitable peptide substrate also leads here to a fluorescent light increase. The signal intensity of the fluorescent light is directly proportional to the enzyme activity. The active concentration of a test compound at which half of the enzyme is inhibited (50% signal intensity of the fluorescent light) is given as IC50 value.
Recombinant MMP-8 of the mouse (R&D Systems, 2904-MP) is chemically activated in accordance with the manufacturer's instructions using APMA. 1 μl of the test compound to be analysed (as a solution in DMSO, suitable concentrations e.g. 1 nM to 30 μM) is pipetted into 24 μl of activated enzyme (final concentration e.g. 2 nM) in reaction buffer (50 mM Tris/HCl pH 7.5, 10 mM CaCl2, 150 mM NaCl, 0.05% Brij®-35) in a white 384-hole microtiter plate (MTP). The enzymatic reaction is started by adding the intramolecularly quenched substrate Mca-Lys-Pro-Leu-Gly-Leu-Dpa(Dnp)-Ala-Arg-NH2 (final concentration e.g. 5 μM; R&D Systems, ES-010), such that a total test volume of 50 μl results. The progress of the MMP-8 reaction is measured by measuring the fluorescence intensity (excitation 320 nm, emission 410 nm) over a suitable period (e.g. over 120 min at a temperature of 32° C.).
(§2) Tables 3A and 3B below give the IC50 values from these tests for the inhibition of rodent MMPs for representative embodiment examples of the present invention and also for two structurally related comparison compounds from the prior art (as racemate and separated enantiomer)→(in part as average values from several independent individual determinations and rounded to two significant places). The IC50 values were determined for racemates and enantiomers from differently generated DMSO stock solutions. Whereas an automatically created DMSO stock solution from the internal substance logistics was used for racemates by means of a standard method, in the case of enantiomers, in each case a freshly produced, manually prepared DMSO stock solution was used for a more precise direct comparison of the enantiomers with one another.

MMP-7 = biological target: T2, MMP-7 (Homo sapiens, UniProt P09237); assay: In vitro MMP-7 inhibition test
T2 construct: purchased R&D Systems 907-MP
T2 sequence (P09237 95-267): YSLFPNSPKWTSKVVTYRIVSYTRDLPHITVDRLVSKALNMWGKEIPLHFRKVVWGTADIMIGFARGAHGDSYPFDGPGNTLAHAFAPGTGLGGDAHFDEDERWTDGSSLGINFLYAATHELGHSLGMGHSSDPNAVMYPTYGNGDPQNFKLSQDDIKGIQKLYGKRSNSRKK
Text: as §1
(§3) Recombinant MMP-7 (R&D Systems, 907-MP) is chemically activated in accordance with the manufacturer's instructions using APMA. 1 μl of the test compound to be analysed (as a solution in DMSO, suitable concentrations e.g. 1 nM to 30 μM) is pipette into 24 μl of activated enzyme (final concentration e.g. 0.5 nM) in reaction buffer (50 mM Tris/HCl pH 7.5, 10 mM CaCl2, 150 mM NaCl, 0.05% Brij®-35) in a white 384-hole microtiter plate (MTP). The enzymatic reaction is started by adding the intramolecularly quenched substrate Mca-Pro-Leu-Gly-Leu-Dpa(Dnp)-Ala-Arg-NH2 (final concentration e.g. 10 μM; R&D Systems, ES-001), such that a total test volume of 50 μl results. The progress of the MMP-7 reaction is measured by measuring the fluorescence intensity (excitation 320 nm, emission 410 nm) over a suitable period (e.g. over 120 min at a temperature of 32° C.).
The IC50 values were determined for racemates and enantiomers from differently generated DMSO stock solutions. Whereas an automatically produced DMSO stock solution from the internal substance logistics was used for racemates by means of a standard method, in the case of enantiomers a freshly produced, manually prepared DMSO stock solution was used in each case for a more precise direct comparison of the enantiomers with one another.

MMP-2 of the rat = assay: In vitro MMP-2 inhibition test of the rat
Text: as §1
as §3, with “Recombinant MMP-2 of the rat” for “Recombinant MMP-7”, “Systems, 924-MP)” for “Systems, 907-MP)”, “APMA. […]” for “APMA. 1”, “is pipetted” for “is pipette”, “e.g. 1” for “e.g. 0.5”, “the MMP-2” for “the MMP-7”
as §2

MMP-2 of the mouse = biological target: T3, MMP-2 of the mouse (Mus musculus, UniProt P33434); assay: In vitro MMP-2 inhibition test of the mouse
T3 construct: purchased R&D Systems 924-MP
T3 sequence (P33434 110-662): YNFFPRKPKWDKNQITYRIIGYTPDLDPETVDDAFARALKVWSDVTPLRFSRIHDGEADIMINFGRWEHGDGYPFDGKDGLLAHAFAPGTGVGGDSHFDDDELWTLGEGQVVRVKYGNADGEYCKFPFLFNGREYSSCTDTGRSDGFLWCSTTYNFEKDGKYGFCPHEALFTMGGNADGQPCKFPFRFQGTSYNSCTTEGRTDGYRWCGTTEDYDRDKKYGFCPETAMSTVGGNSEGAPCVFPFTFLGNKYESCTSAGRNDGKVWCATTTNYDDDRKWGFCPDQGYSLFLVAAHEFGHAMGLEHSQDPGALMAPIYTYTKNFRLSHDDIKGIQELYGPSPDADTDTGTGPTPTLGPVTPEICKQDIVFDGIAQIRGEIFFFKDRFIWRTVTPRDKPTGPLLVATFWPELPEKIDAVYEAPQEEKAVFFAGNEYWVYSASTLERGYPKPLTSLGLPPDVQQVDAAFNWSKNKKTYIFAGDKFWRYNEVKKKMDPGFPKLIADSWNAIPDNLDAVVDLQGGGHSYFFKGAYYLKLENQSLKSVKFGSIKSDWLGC
Text: as §1
as §3, with “Recombinant MMP-2 of the mouse” for “Recombinant MMP-7”, “Systems, 924-MP)” for “Systems, 907-MP)”, “is pipetted” for “is pipette”, “e.g. 0.1” for “e.g. 0.5”, “the MMP-2” for “the MMP-7”
as §2

T1 sequence (O70138 101-465): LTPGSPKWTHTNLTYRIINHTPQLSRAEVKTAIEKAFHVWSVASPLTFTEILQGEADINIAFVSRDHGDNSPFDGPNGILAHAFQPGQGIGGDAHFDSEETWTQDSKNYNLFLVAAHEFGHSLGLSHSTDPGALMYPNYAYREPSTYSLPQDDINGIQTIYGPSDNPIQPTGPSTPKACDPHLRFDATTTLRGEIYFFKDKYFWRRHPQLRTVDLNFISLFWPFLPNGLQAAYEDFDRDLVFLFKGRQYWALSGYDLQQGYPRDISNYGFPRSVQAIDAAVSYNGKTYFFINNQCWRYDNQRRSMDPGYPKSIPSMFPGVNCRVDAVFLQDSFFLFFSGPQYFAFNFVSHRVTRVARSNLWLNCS

## O=C(O)[C@H]1[C@H](Cn2nnc3ccccc3c2=O)CC[C@@H]1C(=O)c1ccc(-c2ccc(Cl)cc2)cc1 (racemic) [Comparative Example A-1, (1RS,2RS,5SR)-2-[(4′-chlorobiphenyl-4-yl)carbonyl]-5-[(4-oxo-1,2,3-benzotriazin-3(4H)-yl)methyl]cyclopentanecarboxylic acid (racemate)]
MMP-8 of the mouse
  IC50: 1.1 nM
MMP-7
  IC50: 310 nM
MMP-2 of the rat
  IC50: 1.3 nM
MMP-2 of the mouse
  IC50: 1.3 nM

## CCCCCOc1ccc(C(=O)CC(CCn2nnc3ccccc3c2=O)C(=O)O)cc1 (racemic) [Comparative Example B-1, (+/−)-4-Oxo-2-[2-(4-oxo-1,2,3-benzotriazin-3(4H)-yl)ethyl]-4-[4-(pentyloxy)phenyl]butanoic acid (racemate)]
MMP-8 of the mouse
  IC50: 2300 nM
MMP-7
  IC50: > 40000 nM
MMP-2 of the rat
  IC50: 610 nM
MMP-2 of the mouse
  IC50: 610 nM

## O=C(O)[C@H]1[C@H](Cn2nnc3ccccc3c2=O)CC[C@@H]1C(=O)c1ccc(OCc2ccccc2)cc1 (racemic) [Example 1, (+/−)-(1RS,2RS,5SR)-2-[4-(Benzyloxy)benzoyl]-5-[(4-oxo-1,2,3-benzotriazin-3(4H)-yl)methyl]cyclopentanecarboxylic acid (racemate)]
MMP-8 of the mouse
  IC50: 71 nM
MMP-7
  IC50: 500 nM
MMP-2 of the rat
  IC50: 33 nM
MMP-2 of the mouse
  IC50: 33 nM

## CCCCCOc1ccc(C(=O)CC(CCn2nnc3ccccc3c2=O)C(=O)O)cc1 (single isomer, unassigned; enantiomer 1) [Comparative Example B-2, (+)-4-Oxo-2-[2-(4-oxo-1,2,3-benzotriazin-3(4H)-yl)ethyl]-4-[4-(pentyloxy)phenyl]butanoic acid (enantiomer 1)]
MMP-8 of the mouse
  IC50: 1080 nM
MMP-7
  IC50: 22500 nM
MMP-2 of the rat
  IC50: 145 nM
MMP-2 of the mouse
  IC50: 145 nM

## O=C(O)[C@@H]1[C@@H](Cn2nnc3ccccc3c2=O)CC[C@H]1C(=O)c1ccc(-c2ccc(Cl)cc2)cc1 (single isomer, unassigned; enantiomer 2) [Comparative Example A-3, (1RS,2RS,5SR)-2-[(4′-Chlorobiphenyl-4-yl)carbonyl]-5-[(4-oxo-1,2,3-benzotriazin-3(4H)-yl)methyl]cyclopentanecarboxylic acid (enantiomer 2)]
MMP-8 of the mouse
  IC50: < 0.61 nM
MMP-7
  IC50: 145 nM
MMP-2 of the rat
  IC50: < 0.61 nM
MMP-2 of the mouse
  IC50: < 0.61 nM

## O=C(O)[C@H]1[C@H](Cn2nnc3ccccc3c2=O)CC[C@@H]1C(=O)c1ccc(OCc2ccccc2)cc1 [Example 2, (+)-(1S,2S,5R)-2-[4-(Benzyloxy)benzoyl]-5-[(4-oxo-1,2,3-benzotriazin-3(4H)-yl)methyl]cyclopentanecarboxylic acid]
MMP-8 of the mouse
  IC50: 34.5 nM
MMP-7
  IC50: 420 nM
MMP-2 of the rat
  IC50: 16.5 nM
MMP-2 of the mouse
  IC50: 16.5 nM
